From US8975246B2, “Bile acid or bile salt fatty acid conjugates” (Galmed Research and Development Ltd., priority 2001, dated 2015)

Tests used:
Type in all cases: in vivo
C57 male inbred mice = test: Fatty liver histologic score, mice on Western diet; settings: Western diet + BAFAC 150 mg/kg/day, 4 W
Description: (§1) The presence of fatty liver was evaluated by a pathologist unaware of the treatments, scoring coded slides in a blinded manner.
(§2) The scoring system was as follows:
C57 male inbred mice (Jackson Lab., Maine, USA) 4-6 weeks old weighing 20-25 gm were used. They were fed a “Western” diet (George et. al. Circulation 2000, 102:1822-27) containing cholesterol 1.5 gm/kg and Fat 42%, Carbohydrates 43%, and Protein 15% (as % of calories). Half were given in addition 150 mg/kg/day of 3β-arachidylamido-7α,12α-dihydroxy-5β-cholan-24-oic acid suspended in saline by intragastric gavage. The other half were similarly given saline only. After 4 weeks the animals were anesthetized and sacrificed. Liver and other organs were removed and placed in formaline prior to histologic examination

[1] = tested on: Golden Syrian Male Hamsters; test: Fatty liver histologic score, hamsters; settings: Lithogenic diet 1 + BAFAC 150 mg/kg/day, 10 W
Description: as §1, §2
Golden Syrian Male Hamsters (Anilab, Rehovot, Israel) […] weighing 90-110 gm were used. They were fed a lithogenic diet (No 1). Half of the animals were given in addition 150 mg/kg/day of 3β-arachidylamido-7α,12α-dihydroxy-5β-cholan-24-oic acid. The compound was given suspended in saline, by intragastric gavage. Control animals were similarly given saline only. After 10 weeks the animals were anesthetized and sacrificed. The liver and other organs were removed and placed in formaline for histologic examination.

human patients [2] = test: Human study: change in adiponectin; design: Change in Adiponectin from Baseline, Mean / Change in Adiponectin from Baseline, Median / Change in Adiponectin from Baseline, Max: unit not given here; settings: for Change in Adiponectin from Baseline, Max / Change in Adiponectin from Baseline, Mean / Change in Adiponectin from Baseline, Median / Change in Adiponectin from Baseline, Min: 3 months
Description: (§3) The effects of BAFACs on disorders associated with Fatty liver, insulin resistance and altered glucose metabolism were tested on 60 human patients. Experiments were subdivided to 2 dosage regimens: Aramchol 300 mg daily (high dose) and 100 mg daily (low dose) respectively for a total period time of 3 months. The Aramchol:placebo ratio is of 2:1 for the low dose arm, and 1:1 for the high dose arms.
(§4) The study period included a 3 month treatment period with Aramchol low dose, or Aramchol high dose, or placebo, and a one month follow-up period. Aramchol was given daily orally. During the treatment period, all patients attended periodic […] (at first month) and subsequently monthly study-center visits in order to assess safety and efficacy of the treatment.
(§5) The results are shown using two known in the art principle statistical evaluation on, Intention-To-Treat (ITT) and Per Protocol (PP) populations. The ITT principle asserts that the effect of a treatment policy can be best assessed by evaluation on the basis of the intention to treat a subject (i.e. the planned treatment regimen) rather than the actual treatment given. It has the consequence that subjects allocated to a treatment group should be followed up, assessed and analyzed as members of that group irrespective of their compliance to the planned course of treatment. […] Compliance covers such considerations as exposure to treatment, availability of measurements and absence of major protocol violations.

ICR male mice = test: Fasting blood glucose, streptozotocin treated mice (IDDM model); settings: Streptozotocin 200 mg/kg i.p., regular diet, BAFAC 150 mg/kg/day by gavage, 16 days
Description: The effects of BAFACs on fasting blood glucose were tested in 3 animal species: Hamsters, Rats and Mice. The animals were kept on regular or high fat diets (as specified). In each group half of the animals received a daily BAFAC dose (150 mg/kg) dispersed in 0.5 ml of saline by gavage. The other half received similarly, by gavage, an equal volume of saline only. All animals were kept on a 12 hr day/night cycle at 22° C. throughout the experiment. They had access to water ad libidum.
ICR male mice, 4 weeks old (approx. 20 gm) were fed a regular diet. Streptozotocin 200 mg/kg was injected i.p. on the first day of the experiment. (This induced damage to the islet cells of the pancreas and simulated IDDM). Fasting blood glucose was obtained from sacrificed animals after 16 days of the trial. There were 3 groups of 7 animals each. Controls—regular diet only. Streptozotocin (Stz) treated animals receiving saline only by gavage and streptozocin treated animals receiving 150 mg/kg/day of BAFAC by gavage. The BAFAC used in all these hyperglycemia studies was a conjugate of arachidic and cholic acid (at position 3) using an amide bond (C-20 BAFAC, Aramchol).

human patients [3] = test: Human study: change in HOMA (insulin resistance); settings: for Change in HOMA from Baseline, Max / Change in HOMA from Baseline, Mean / Change in HOMA from Baseline, Median / Change in HOMA from Baseline, Min: 3 months
Description: as §3, §4, §5
Homeostatic model assessment (HOMA) is a method used to quantify insulin resistance and beta-cell function. The Dunnett method is used for multiple comparisons with a control group, and adjusts the data by age, gender, diagnosis, baseline HbA1c and baseline weight.

[4] = score 0 (no fatty liver) to 4 (severe, >50% of liver surface)

**Q.** Which “Fatty Liver Scores: number of animals with score 0” value (C57 male inbred mice; n 14, 0 - No fatty liver) does the source give for CCCCCCCCCCCCCCCCCCCC(=O)N[C@H]1CC[C@@]2(C)[C@@H](C1)C[C@@H](O)[C@@H]1[C@@H]2C[C@H](O)[C@]2(C)[C@@H]([C@H](C)CCC(=O)O)CC[C@@H]12 [Aramchol, 3β-arachidylamido-7α,12α-dihydroxy-5β-cholan-24-oic acid] here?
**A.** Its value is 12.

**Q.** And the “Fatty Liver Scores: number of animals with score 1” value (C57 male inbred mice; n 14, 1 - Minimal fatty liver)?
**A.** The value was 1.

**Q.** And the “Fatty Liver Scores: number of animals with score 4” value (C57 male inbred mice; n 14, 4 - Severe fatty liver)?
**A.** Its value is 1.

**Q.** And the “Fatty Liver Score, mean” value (C57 male inbred mice; [4])?
**A.** The value was 0.35.

**Q.** What about the “Fatty Liver Scores: number of animals with score 0” value ([1]; n 7, 0 - No fatty liver) of the same molecule?
**A.** Its value is 6.

**Q.** And the “Fatty Liver Scores: number of animals with score 2” value ([1]; n 7, 2 - Mild fatty liver)?
**A.** The value was 1.

**Q.** What about the “Fatty Liver Score, mean” value [1, 4] of the same molecule?
**A.** Its value is 0.28.

**Q.** What about the “Change in Adiponectin from Baseline, Max” value (human patients [2]; Aramchol 100 mg/d oral, ITT) of the same molecule?
**A.** The value was 11.1.

**Q.** And the “Change in Adiponectin from Baseline, Mean” value (from here on “Change in Adiponectin … Mean”) (human patients [2]; Aramchol 100 mg/d oral, ITT)?
**A.** The value was −3.4.

**Q.** What about the “Change in Adiponectin from Baseline, Median” value (“Change in Adiponectin … Median” for short) (human patients [2]; Aramchol 100 mg/d oral, ITT) of the same molecule?
**A.** The value was −2.7.

**Q.** What about the “Change in Adiponectin from Baseline, Min” value (human patients [2]; Aramchol 100 mg/d oral, ITT) of the same molecule?
**A.** The value was −46.3.

**Q.** What about the “Change in Adiponectin from Baseline, Max” value (human patients [2]; Aramchol 100 mg/d oral, PP) of the same molecule?
**A.** The value was 11.1.

**Q.** What about the “Change in Adiponectin … Mean” value (human patients [2]; Aramchol 100 mg/d oral, PP) of the same molecule?
**A.** The value was −3.4.

**Q.** And the “Change in Adiponectin … Median” value (human patients [2]; Aramchol 100 mg/d oral, PP)?
**A.** The value was −2.3.

**Q.** What about the “Change in Adiponectin from Baseline, Min” value (human patients [2]; Aramchol 100 mg/d oral, PP) of the same molecule?
**A.** The value was −46.3.

**Q.** What about the “Change in Adiponectin from Baseline, Max” value (human patients [2]; Aramchol 300 mg/d oral, ITT) of the same molecule?
**A.** Its value is 41.7.

**Q.** What about the “Change in Adiponectin … Mean” value (human patients [2]; Aramchol 300 mg/d oral, ITT) of the same molecule?
**A.** The value was 1.8.

**Q.** What about the “Change in Adiponectin … Median” value (human patients [2]; Aramchol 300 mg/d oral, ITT) of the same molecule?
**A.** Its value is −1.3.

**Q.** And the “Change in Adiponectin from Baseline, Min” value (human patients [2]; Aramchol 300 mg/d oral, ITT)?
**A.** The value was −28.0.

**Q.** And the “Change in Adiponectin from Baseline, Max” value (human patients [2]; Aramchol 300 mg/d oral, PP)?
**A.** The value was 41.7.

**Q.** And the “Change in Adiponectin … Mean” value (human patients [2]; Aramchol 300 mg/d oral, PP)?
**A.** The value was 1.8.

**Q.** And the “Change in Adiponectin … Median” value (human patients [2]; Aramchol 300 mg/d oral, PP)?
**A.** The value was −1.3.

**Q.** And the “Change in Adiponectin from Baseline, Min” value (human patients [2]; Aramchol 300 mg/d oral, PP)?
**A.** The value was −28.0.

**Q.** What about the “levels of adiponectin (in words)” value (human patients [2]; Aramchol 300 mg/d, tested subjects, Tables 5 and 6) of the same molecule?
**A.** The value was “increases the levels of adiponectin”.

**Q.** And the fasting blood glucose (ICR male mice)?
**A.** Its fasting blood glucose is “markedly reduced”.

**Q.** And the “Change in HOMA from Baseline, Max” value (human patients [3]; Aramchol 100 mg/d oral, ITT)?
**A.** Its value is 11.70.

**Q.** What about the “Change in HOMA from Baseline, Mean” value (human patients [3]; Aramchol 100 mg/d oral, ITT) of the same molecule?
**A.** Its value is 1.25.

**Q.** And the “Change in HOMA from Baseline, Median” value (human patients [3]; Aramchol 100 mg/d oral, ITT)?
**A.** Its value is 0.20.

**Q.** And the “Change in HOMA from Baseline, Min” value (human patients [3]; Aramchol 100 mg/d oral, ITT)?
**A.** The value was −2.00.

**Q.** What about the “Change in HOMA from Baseline, Max” value (human patients [3]; Aramchol 100 mg/d oral, PP) of the same molecule?
**A.** The value was 11.70.

**Q.** What about the “Change in HOMA from Baseline, Mean” value (human patients [3]; Aramchol 100 mg/d oral, PP) of the same molecule?
**A.** Its value is 1.13.

**Q.** And the “Change in HOMA from Baseline, Median” value (human patients [3]; Aramchol 100 mg/d oral, PP)?
**A.** The value was 0.20.

**Q.** What about the “Change in HOMA from Baseline, Min” value (human patients [3]; Aramchol 100 mg/d oral, PP) of the same molecule?
**A.** The value was −2.00.

**Q.** What about the “Change in HOMA from Baseline, Max” value (human patients [3]; Aramchol 300 mg/d oral, ITT) of the same molecule?
**A.** Its value is 2.80.

**Q.** And the “Change in HOMA from Baseline, Mean” value (human patients [3]; Aramchol 300 mg/d oral, ITT)?
**A.** The value was −7.74.

**Q.** What about the “Change in HOMA from Baseline, Median” value (human patients [3]; Aramchol 300 mg/d oral, ITT) of the same molecule?
**A.** Its value is 0.20.

**Q.** And the “Change in HOMA from Baseline, Min” value (human patients [3]; Aramchol 300 mg/d oral, ITT)?
**A.** The value was −139.60.

**Q.** And the “Change in HOMA from Baseline, Max” value (human patients [3]; Aramchol 300 mg/d oral, PP)?
**A.** The value was 2.80.

**Q.** And the “Change in HOMA from Baseline, Mean” value (human patients [3]; Aramchol 300 mg/d oral, PP)?
**A.** Its value is −7.74.

**Q.** What about the “Change in HOMA from Baseline, Median” value (human patients [3]; Aramchol 300 mg/d oral, PP) of the same molecule?
**A.** Its value is 0.20.

**Q.** What about the “Change in HOMA from Baseline, Min” value (human patients [3]; Aramchol 300 mg/d oral, PP) of the same molecule?
**A.** The value was −139.60.

**Q.** And the “insulin resistance (in words)” value (human patients [3]; Aramchol 300 mg/d, tested subjects, Tables 3 and 4)?
**A.** Its value is “reduces insulin resistance”.
